Laboratory results as given in patent US10328161B2, “Luciferin derivatives from bicyclic reactants and aminothiol derivatives and methods of use thereof” (The Regents of the University of California, priority 2012, dated 2019).

What was measured:
Format in all cases: in vivo
[1] = Antioxidant (NAC) experiments in mice; conditions: NAC 10 mg/kg IP, H2O2 1.5 μmol, PCL-2 and D-cysteine 0.05 μmol each
From the text: A Xenogen IVIS Spectrum instrument (Caliper Life Sciences, Hopkinton, Mass.) was used for bioluminescent imaging in all animal experiments. Mice were anesthetized prior to injection and during imaging via inhalation of isoflurane. Phosphate Buffered Saline (PBS) was purchased from Thermo Fisher Scientific (Waltham, Mass.), and saline (0.9%) was made from sodium chloride and Millipore water. Isoflurane was purchased from Phoenix Pharmaceuticals, Inc. (St. Joseph, Mo.), and pharmaceutical grade DMSO was purchased from Sigma-Aldrich (St. Louis, Mo.). Medical grade oxygen was purchased from Praxair (Danbury, Conn.). FVB-luc^+ (FVB-Tg(CAG-luc,-GFP)L2G85Chco/J) mice were bred at UC Berkeley, and were single or group-housed on a 12:12 light-dark cycle at 22° C. with free access to food and water. All studies were approved and performed according to the guidelines of the Animal Care and Use Committee of the University of California, Berkeley. Unshaven, male FVB-luc^+ mice, were anesthetized with isoflurane and injected IP with NAC (10 mg/kg in 25 μL of PBS, pH 7-8) or PBS (25 μL). After 2 min, the mice were injected IP with a mixture of PCL-2 and D-cysteine (0.05 μmol each, in 50 μL of 1:1 DMSO:PBS) immediately prior to IP injection of H2O2 (1.5 μmol in 75 μL of PBS). […]

caspase 8 = molecular target: T1, caspase 8 (Mus musculus, UniProt O89110); assay: Lipopolysaccharide inflammation model, caspase 8 detection with IETDC; conditions: pan-caspase inhibitor 1 μmol IP, LPS-treated mice
T1 construct: from tissue; host or cells: living FVB-luc+ mice (whole animal, IP injection) after LPS challenge
T1 sequence (O89110 219-376 limits assumed): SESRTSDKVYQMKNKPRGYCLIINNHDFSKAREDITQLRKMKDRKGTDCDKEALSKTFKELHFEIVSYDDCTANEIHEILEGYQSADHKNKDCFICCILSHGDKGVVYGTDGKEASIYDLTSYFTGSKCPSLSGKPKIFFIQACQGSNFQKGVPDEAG
T1 sequence (O89110 388-480 limits assumed): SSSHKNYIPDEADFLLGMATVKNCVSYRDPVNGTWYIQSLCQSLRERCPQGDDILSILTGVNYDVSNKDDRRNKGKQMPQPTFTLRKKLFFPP
From the text: (§1) A Xenogen IVIS Spectrum instrument (Caliper Life Sciences, Hopkinton, Mass.) was used for bioluminescent imaging in all animal experiments. Mice were anesthetized prior to injection and during imaging via inhalation of isoflurane. Phosphate Buffered Saline (PBS) was purchased from Thermo Fisher Scientific (Waltham, Mass.), and saline (0.9%) was made from sodium chloride and Millipore water. Isoflurane was purchased from Phoenix Pharmaceuticals, Inc. (St. Joseph, Mo.), and pharmaceutical grade DMSO was purchased from Sigma-Aldrich (St. Louis, Mo.). Medical grade oxygen was purchased from Praxair (Danbury, Conn.).
(§2) FVB-luc^+ (FVB-Tg(CAG-luc,-GFP)L2G85Chco/J) mice were bred at UC Berkeley, and were single or group-housed on a 12:12 light-dark cycle at 22° C. with free access to food and water. All studies were approved and performed according to the guidelines of the Animal Care and Use Committee of the University of California, Berkeley.
Unshaven, female FVB-luc^+ mice, aged 2-5 months, were anesthetized with isoflurane and injected IP with lipopolysaccharides (LPS, 3 mg/kg in 50 μL of saline) or saline (50 μL). For studies with PCL-2 alone, mice were injected IP with either apocynin (10 mg/kg in 20 μL of DMSO) or DMSO (20 μL) 6 h after LPS injection. […]

H2O2 and caspase 8 = assay: Lipopolysaccharide inflammation model, dual detection with PCL-2 and IETDC; conditions: ascorbic acid 200 mg/kg and z-VD-OPh 1 μmol used together, LPS-treated mice
From the text: as §1, §2
For studies with PCL-2 and IETDC, mice were injected IP with ascorbic acid (200 mg/kg in 30 μL of saline) or the saline vehicle (30 μL) 30 min prior to IP injection of LPS (3 mg/kg in 50 μL of saline) or saline (50 μL). Two hours after injection of LPS, z-VD(OMe)-OPh (1 μmol in 20 μL of DMSO) or the vehicle, DMSO (20 μL), was injected IP. […]

FVB-luc^+ mice = assay: Control: effect of inhibitors and antioxidants on HCBT and D-cysteine luciferin signal in mice; conditions: apocynin 10 mg/kg or z-VD-OPh 1 μmol IP; HCBT and D-cysteine 0.01 μmol each
Protocol: (a) Total photon fluxes, 0-15 min post-injection, for mice (n=3) injected with apocynin (IP, 10 mg/kg in 20 μL DMSO) or vehicle (IP, 20 μL DMSO) two min prior to injections of a mixture of HCBT and D-cysteine (IP, 0.01 μmol each, in 50 μL of 1:1 DMSO:PBS). (b) Total photon fluxes, 15-45 min post-injection, for mice (n=3) injected with z-VD(OMe)-OPh (IP, 1 μmol in 20 μL DMSO) or vehicle (IP, 20 μL DMSO) 30 min prior to injections of a mixture of HCBT and D-cysteine (IP, 0.01 μmol each, in 50 μL of 1:1 DMSO:PBS). Error bars are ±SEM.
FIG. 18 depicts bioluminescent signals from HCBT and D-cysteine with ascorbic acid in FVB-luc^+ mice. Total photon fluxes, 30-60 min post-injection, for mice (n=3-4) injected with ascorbic acid (IP, 200 mg/kg in 30 μL saline) or vehicle (IP, 30 μL saline) 4.5 h prior to injections of a mixture of HCBT and D-cysteine (IP, 0.01 μmol each, in 50 μL of 1:1 DMSO:PBS). Error bars are ±SEM.

| Structure (SMILES) | effect of NAC on the PCL-2 bioluminescent signal [1] | attenuation of the IETDC signal (caspase 8) [%] | decrease in dual-probe bioluminescent signal (H2O2 and caspase 8) [%] | effect on the luciferin signal from HCBT and D-cysteine in vivo (FVB-luc^+ mice) |
| --- | --- | --- | --- | --- |
| CC(=O)N[C@@H](CS)C(=O)O [NAC, N-acetyl-L-cysteine] | considerably attenuated | – | – | – |
| COC(=O)CC(NC(=O)C(NC(=O)OCc1ccccc1)C(C)C)C(=O)COc1c(F)cccc1F (stereo not shown) [z-VD-OPh] | – | 34 | 30 | do not alter the luciferin signal |
